Experimental data: US4784999A, “Novel treatment” (Beecham Wuelfing GmbH & Co. KG, priority 1986, dated 1988)

Assays:
[1] = system: rat ischaemic gastrocnemius muscle; assay: Oxygen tension (pO2) of rat ischaemic gastrocnemius muscle; format: in vivo; conditions: 0.5 mg/kg administered intravenously; ischaemic hindlimb gastrocnemius muscle, anaesthetized rats; n=12; p<0.01 signed rank test
[2] = system: Triethyltin-induced cerebral oedema; assay: Triethyltin-induced cerebral oedema in the rat; format: in vivo; conditions: 2×50 mg/kg orally, twice daily for 5 days of triethyltin intoxication; Wistar rats; brain water content; p<0.05 (student's t-test)
Procedure: The cerebral oedema is induced by oral administrations repeated for 5 consecutive days--one administration per day--of triethyltin chloride at a dose of 2 mg/kg. The test compound is also administered orally twice daily as aqueous solution or suspension at a dose of 1 ml/100 g body-weight; these administrations are given during the 5 days of intoxication with tin. Three groups of 10 male specific pathogen-free (SPF) Wistar rats of 280±10 g body-weight are used:
1 group intoxicated with triethyltin
1 group intoxicated with triethyltin and treated with the studied compound The rats are killed on the evening of the fifth day; the brain is removed, weighed fresh and after desiccation to constant weight and the water content of each brain is calculated [H2 O]=fresh weight-dry weight.
The following are then calculated the mean water content (M+Sm %) of each group; the protection index P due to the administered compound: [formula]

[3] = molecular target: cAMP phosphodiesterase of rat brain; assay: Inhibitory activity on cAMP phosphodiesterase of rat brain (Dixon plot); format: biochemical; conditions: homogenates of rat brain; 0.31 μM cyclic AMP as substrate; extrapolated from Dixon plot; read-out: apparent Ki
Procedure: The activity of cyclic AMP phosphodiesterase in homogenates of rat brain was measured in the presence of various concentrations of the compound 1,3-di-n-butyl-7-(2-oxypropyl)xanthine using 0.31 μM cyclic AMP as substration The reciprocal of the reaction rate was plotted on the y axis against each concentration of the compound on the x axis (Dixon plot). The apparent Ki value was estimated by extrapolating the steeper linear portion of the Dixon plot to the x axis and obtaining the negative intercept on the x axis.

[4] = system: recall latency in the gerbil following transient forebrain ischaemia; assay: Gerbil Ischaemic Deficit Passive Avoidance Test; format: in vivo, Mongolian gerbils; conditions: Ischaemia and Test Compound, 10 mg/kg p.o., seven administrations; gerbils after 5 min bilateral carotid ligation; significantly different from ischaemic controls (p<0.05)
Procedure: Mongolian gerbils were conditioned to avoid entering a dark compartment by means of a footshock (maximally 50 V, 2 s duration) received when entering from the light section of a two compartment box. Recollection of the footshock was examined 24 h later by replacing the gerbils in the two compartment box and measuring the recall latency, the time taken to re-enter the dark compartment.
A learning or memory deficit was induced in the gerbils by a transient (5 min) bilateral carotid artery ligation, performed 24 h prior to conditioning, under light hexobarbital anaesthesia.
Compounds, being examined for an effect on learning or memory in gerbils which had undergone carotid occlusion, were administered seven times during the experiment The initial administration was during the period of forebrain ischaemia, the third and seventh administrations were 10 min prior to conditioning and recall testing, respectively, and the remainder were given at intermediate time points.
A long recall latency indicates good information acquisition or retrieval.

SMILES: CCCCn1c(=O)c2c(ncn2CC(C)=O)n(CCCC)c1=O [1,3-di-n-butyl-7-(2-oxypropyl)xanthine]
- mean (±SEM) increase in pO2 [1]: 5.7±2.1 torr
- protection index P [2]: 65%
- Ki [3]: 64 µM
- Percentage of animals with recall latencies >60s [4]: 36
